Laboratory results reported in patent US20140121216A1, “INDOLEAMINE DERIVATIVES FOR THE TREATMENT OF CENTRAL NERVOUS SYSTEM DISEASES” (Adamed Sp. z o.o., priority 2011, published 2014).

How the values were obtained:
Male CD-1 mice = assay: Dizocilpine-induced locomotor hyperactivity in mice; format: in vivo
Procedure: Potential antipsychotic activity was tested for the representative compound 24 in mouse model of psychosis, involving the induction of locomotor hyperactivity by administering psychotomimetic substance-dizocilpine. The ability of a test compound to remove this effect is a measure of potential antipsychotic activity.
Male CD-1 mice were group-housed for 2-3 day period in polycarbonate Makrolon type 3 cages (dimensions 26.5×15×42 cm) in an environmentally controlled, experimental room (ambient temperature 22-20° C.; relative humidity 50-60%; 12:12 light:dark cycle, lights on at 8:00), in groups of 15. Standard laboratory food (Ssniff M-Z) and filtered water were freely available. On the day before experiments the equipment produced “white noise” was turned on for 30 minutes and mice were weighted exact to 1 g. Animals were assigned randomly to treatment groups. All the experiments were performed by two observers unaware of the treatment applied between 9:00 and 14:00 on separate groups of animals. […]
The locomotor activity was recorded with an Opto M3 multi-channel activity monitor (MultiDevice Software v.1.3, Columbus Instruments). The mice were individually placed in plastic cages (22×12×13 cm) for 30 minutes habituation period, and then the crossings of each channel (ambulation) were counted during 1 h with data recording every 5 minutes. […]

male Wistar rats = assay: Reversal of the dizocilpine (MK-801)-induced PPI deficits in rats; format: in vivo
Procedure: Drug-naive male Wistar rats (Charles River, Sulzfeld, Germany) weighing 250-400 g were housed in polycarbonate Makrolon cages (380×200×590 mm) in an environmentally controlled, experimental room (ambient temperature 21-23° C.; relative humidity 50-60%; 12:12 light:dark cycle, lights on at 7:00 a.m.), in groups of 4. Tap water and standard lab chow (Labofeed H, WPIK, Kcynia, Poland) was available ad libitum.
The animals were delivered to the Animal Research Unit of the Department of Pharmacology, Institute of Psychiatry and Neurology, 2 weeks before the start of experimental procedures. During these 2 weeks all the rats were repeatedly getting used to the presence of the experimenter (handling), and to injections of saline.
On the day before experiments rats were weighted exact to 1 g. Animals were assigned randomly to treatment groups. All the experiments were performed on separate groups of animals, between 9:00 and 15:00. […]
The PPI apparatus consisted of eight acoustic startle chambers (SR-LAB, San Diego Instruments, San Diego, Calif., USA). […] Startle responses, reflecting the motion of animals in the cylinder following the acoustic stimulus, were detected by a piezoelectric transducer mounted below the frame. […]
The average inter-trial interval was 22.5 s (range: 15-30 s). […] Startle responses were measured for 100 ms after the onset of the last trial stimulus. […]

[1] = biological target: 5-HT2A receptor, human recombinant (Homo sapiens, UniProt P28223); assay: Binding assay, 5-HT2A receptor ([3H]ketanserin)
Procedure: Moreover, ability of the compounds of the invention to block potassium channel hERG was tested.
The specific ligand binding to the receptors is defined as the difference between the total binding and the non-specific binding determined in the presence of an excess of unlabelled ligand.
The inhibition constants (Ki) were calculated using the Cheng Prusoff equation (Ki=IC50/(1+(L/KD)), where L=concentration of radioligand in the assay, and KD=affinity of the radioligand for the receptor). A Scatchard plot is used to determine the Kd. The IC50 values (concentration causing a half-maximal inhibition of control specific binding) and Hill coefficients (nH) were determined by non-linear regression analysis of the competition curves generated with mean replicate values using Hill equation curve fitting (Y=D+[(A−D)/(1+(C/C50)^nH)], where Y=specific binding, D=minimum specific binding, A=maximum specific binding, C=compound concentration, C50=IC50, and nH=slope factor).

Sequence of 5-HT2A receptor, human recombinant (P28223 whole entry, looked up): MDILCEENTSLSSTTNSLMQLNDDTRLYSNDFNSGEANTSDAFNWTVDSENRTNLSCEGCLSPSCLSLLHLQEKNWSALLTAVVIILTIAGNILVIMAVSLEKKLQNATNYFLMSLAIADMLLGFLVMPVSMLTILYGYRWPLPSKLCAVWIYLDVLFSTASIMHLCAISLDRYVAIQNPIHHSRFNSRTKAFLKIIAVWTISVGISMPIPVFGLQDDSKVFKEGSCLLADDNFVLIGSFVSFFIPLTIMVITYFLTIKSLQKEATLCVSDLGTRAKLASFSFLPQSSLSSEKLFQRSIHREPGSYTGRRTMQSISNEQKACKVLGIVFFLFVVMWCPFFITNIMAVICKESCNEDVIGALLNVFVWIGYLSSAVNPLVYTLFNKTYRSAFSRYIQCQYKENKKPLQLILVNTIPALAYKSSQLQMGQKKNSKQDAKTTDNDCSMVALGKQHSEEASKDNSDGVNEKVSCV

Structure (SMILES) | activity in words, dizocilpine-induced locomotor hyperactivity test (Male CD-1 mice) | MED (minimum effective dose), dizocilpine-induced locomotor hyperactivity (Male CD-1 mice; i.p., 30 minutes before the experiment) | activity in words, dizocilpine (MK-801)-induced PPI deficit test (male Wistar rats) | MED (minimum effective dose), reversal of dizocilpine (MK-801)-induced PPI deficits (male Wistar rats; i.p., 60 min. before the test) | Ki [1]
O=C1CCc2ccc(OCCCCN3CCN(c4cccc5c4ccn5S(=O)(=O)c4ccccc4)CC3)cc2N1 [Compound 24, 7-(4-(4-(1-(Phenylsulphonyl)-1H-indol-4-yl)piperazin-1-yl)butoxy)-3,4-dihydroquinolin-2(1H)-one] | active | 10 mg/kg | active | 10 mg/kg | 
O=C1CCc2ccc(OCCCCN3CCN(c4cccc5c4ccn5Cc4cccc(Cl)c4)CC3)cc2N1 [Compound 67, 7-[4-[4-[1-[(3-Chlorophenyl)methyl]indol-4-yl]piperazin-1-yl]butoxy]-3,4-dihydro-1H-quinolin-2-one] |  |  |  |  | 2.4 nM
